Patent US20150105252A1, “SUBSTITUTED PYRAZOLES AS HERBICIDES” (E I DU PONT DE NEMOURS AND COMPANY, priority 2013, published 2015)

What was measured:
foxtail, green = assay: Test D preemergence; assay type: in vivo, Setaria viridis; settings: for Plant response rating, Foxtail, Green: Preemergence, scale 0 to 100
Description: (§1) Seeds of plant species selected from bluegrass (annual bluegrass, Poa annua), blackgrass (Alopecurus myosuroides), canarygrass (littleseed canarygrass, Phalaris minor), chickweed (common chickweed, Stellaria media), galium (catchweed bedstraw, Galium aparine), bromegrass, downy (downy bromegrass, Bromus tectorum), field poppy (Papaver rhoeas), field violet (Viola arvensis), foxtail, green (green foxtail, Setaria viridis), deadnettle (henbit deadnettle, Lamium amplexicaule), ryegrass, Italian (Italian ryegrass, Lolium multiflorum), kochia (Kochia scoparia), lambsquarters (Chenopodium album), oilseed rape (Brassica napus), pigweed (redroot pigweed, Amaranthus retroflexus), chamomile (scentless chamomile, Matricaria inodora), speedwell (bird's-eye speedwell, Veronica persica), barley, spring (spring barley, Hordeum vulgare), wheat, spring (spring wheat, Triticum aestivum), buckwheat, wild (wild buckwheat, Polygonum convolvulus), mustard, wild (wild mustard, Sinapis arvensis), oat, wild (wild oat, Avena fatua), radish, wild (wild radish, Raphanus raphanistrum), windgrass (Apera spica-venti), Russian thistle (Salsola kali), barley, winter (winter barley, Hordeum vulgare), and wheat, winter (winter wheat, Triticum aestivum) were planted into a silt loam soil and treated preemergence with test chemicals formulated in a non-phytotoxic solvent mixture which included a surfactant.
(§2) At the same time, these species were planted in pots containing Redi-Earth® planting medium (Scotts Company, 14111 Scottslawn Road, Marysville, Ohio 43041) comprising spaghnum peat moss, vermiculite, wetting agent and starter nutrients and treated with postemergence applications of the test chemicals formulated in the same manner. Plants ranged in height from 2 to 18 cm (1- to 4-leaf stage). Treated plants and controls were maintained in a controlled growth environment for 14 to 21 days after which time all species were compared to controls and visually evaluated. Plant response ratings, summarized in Table D, are based on a scale of 0 to 100 where 0 is no effect and 100 is complete control. A dash (-) response means no test result.

buckwheat, wild = assay: Test D postemergence; assay type: in vivo, Polygonum convolvulus; settings: scale 0 to 100
Description: as §1, §2

field violet [1] = assay: Test D postemergence; assay type: in vivo, Viola arvensis; settings: scale 0 to 100
Description: as §1, §2

canarygrass = assay: Test D postemergence; assay type: in vivo, Phalaris minor; settings: scale 0 to 100
Description: as §1, §2

mustard, wild = assay: Test D preemergence; assay type: in vivo, Sinapis arvensis; settings: for Plant response rating, Mustard, Wild: Preemergence, scale 0 to 100
Description: as §1, §2

kochia [2] = assay: Test D preemergence; assay type: in vivo, Kochia scoparia; settings: for Plant response rating, Kochia: Preemergence, scale 0 to 100
Description: as §1, §2

kochia [3] = assay: Test D postemergence; assay type: in vivo, Kochia scoparia; settings: scale 0 to 100
Description: as §1, §2

galium = assay: Test D postemergence; assay type: in vivo, Galium aparine; settings: scale 0 to 100
Description: as §1, §2

chickweed = assay: Test D postemergence; assay type: in vivo, Stellaria media; settings: scale 0 to 100
Description: as §1, §2

chamomile = assay: Test D preemergence; assay type: in vivo, Matricaria inodora; settings: for Plant response rating, Chamomile: Preemergence, scale 0 to 100
Description: as §1, §2

field poppy = assay: Test D postemergence; assay type: in vivo, Papaver rhoeas; settings: scale 0 to 100
Description: as §1, §2

speedwell = assay: Test D preemergence; assay type: in vivo, Veronica persica; settings: for Plant response rating, Speedwell: Preemergence, scale 0 to 100
Description: as §1, §2

radish, wild = assay: Test D preemergence; assay type: in vivo, Raphanus raphanistrum; settings: for Plant response rating, Radish, Wild: Preemergence, scale 0 to 100
Description: as §1, §2

field violet [4] = assay: Test D preemergence; assay type: in vivo, Viola arvensis; settings: for Plant response rating, Field Violet: Preemergence, scale 0 to 100
Description: as §1, §2

bluegrass [5] = assay: Test D preemergence; assay type: in vivo, Poa annua; settings: for Plant response rating, Bluegrass: Preemergence, scale 0 to 100
Description: as §1, §2

windgrass = assay: Test D postemergence; assay type: in vivo, Apera spica-venti; settings: scale 0 to 100
Description: as §1, §2

bromegrass, downy [6] = assay: Test D postemergence; assay type: in vivo, Bromus tectorum; settings: scale 0 to 100
Description: as §1, §2

deadnettle = assay: Test D postemergence; assay type: in vivo, Lamium amplexicaule; settings: scale 0 to 100
Description: as §1, §2

bromegrass, downy [7] = assay: Test D preemergence; assay type: in vivo, Bromus tectorum; settings: for Plant response rating, Bromegrass, Downy: Preemergence, scale 0 to 100
Description: as §1, §2

bluegrass [8] = assay: Test D postemergence; assay type: in vivo, Poa annua; settings: scale 0 to 100
Description: as §1, §2

[9] = 16 g ai/ha, taken as preemergence

Cc1cc(C(=O)NCC(F)(F)F)nn1Cc1ccnc(C(F)(F)F)c1 [Compound 74]
40: Galium plant response rating (galium; postemergence, 62 g ai/ha)
0: Plant response rating (scale 0 to 100), Foxtail, Green (foxtail, green; [9]) | Plant response rating, Canarygrass (canarygrass; Postemergence, 16 g ai/ha) | Canarygrass plant response rating (canarygrass; Postemergence, 31 g ai/ha) | Canarygrass plant response rating (canarygrass; Postemergence, 125 g ai/ha) | Canarygrass plant response rating (canarygrass; postemergence, 62 g ai/ha) | Plant response rating (scale 0 to 100), Radish, Wild (radish, wild; [9]) | Plant response rating (scale 0 to 100), Bluegrass (bluegrass [5]; [9]) | Plant response rating, Bluegrass (bluegrass [5]; 31 g ai/ha) | Plant response rating, Bluegrass (bluegrass [5]; 62 g ai/ha) | Plant response rating, Windgrass (windgrass; Postemergence, 16 g ai/ha) | Windgrass plant response rating (windgrass; Postemergence, 31 g ai/ha) | Windgrass plant response rating (windgrass; postemergence, 62 g ai/ha) | Plant response rating, Bromegrass, Downy (bromegrass, downy [6]; Postemergence, 16 g ai/ha) | Bromegrass, Downy plant response rating (bromegrass, downy [6]; Postemergence, 31 g ai/ha) | Bromegrass, Downy plant response rating (bromegrass, downy [6]; Postemergence, 125 g ai/ha) | Bromegrass, Downy plant response rating (bromegrass, downy [6]; postemergence, 62 g ai/ha) | Plant response rating (scale 0 to 100), Bromegrass, Downy (bromegrass, downy [7]; [9]) | Plant response rating, Bromegrass, Downy (bromegrass, downy [7]; 31 g ai/ha) | Plant response rating, Bromegrass, Downy (bromegrass, downy [7]; 125 g ai/ha)
50: Field Violet plant response rating (field violet [1]; Postemergence, 125 g ai/ha) | Plant response rating (scale 0 to 100), Kochia (kochia [2]; [9])
95: Plant response rating, Field Violet (field violet [4]; 125 g ai/ha)
65: Buckwheat, Wild plant response rating (buckwheat, wild; Postemergence, 125 g ai/ha) | Kochia plant response rating (kochia [3]; Postemergence, 125 g ai/ha) | Chickweed plant response rating (chickweed; Postemergence, 125 g ai/ha)
75: Field Poppy plant response rating (field poppy; Postemergence, 31 g ai/ha) | Plant response rating, Radish, Wild (radish, wild; 62 g ai/ha)
35: Kochia plant response rating (kochia [3]; postemergence, 62 g ai/ha) | Chickweed plant response rating (chickweed; Postemergence, 31 g ai/ha)
30: Plant response rating, Foxtail, Green (foxtail, green; 125 g ai/ha) | Field Violet plant response rating (field violet [1]; Postemergence, 31 g ai/ha) | Field Poppy plant response rating (field poppy; postemergence, 62 g ai/ha) | Deadnettle plant response rating (deadnettle; Postemergence, 125 g ai/ha)
20: Galium plant response rating (galium; Postemergence, 31 g ai/ha) | Plant response rating (scale 0 to 100), Chamomile (chamomile; [9]) | Field Poppy plant response rating (field poppy; Postemergence, 125 g ai/ha) | Deadnettle plant response rating (deadnettle; postemergence, 62 g ai/ha)
45: Buckwheat, Wild plant response rating (buckwheat, wild; postemergence, 62 g ai/ha)
10: Plant response rating, Foxtail, Green (foxtail, green; 62 g ai/ha) | Plant response rating, Galium (galium; Postemergence, 16 g ai/ha) | Plant response rating, Field Poppy (field poppy; Postemergence, 16 g ai/ha) | Plant response rating, Deadnettle (deadnettle; Postemergence, 16 g ai/ha)
60: Plant response rating, Buckwheat, Wild (buckwheat, wild; Postemergence, 16 g ai/ha) | Buckwheat, Wild plant response rating (buckwheat, wild; Postemergence, 31 g ai/ha) | Field Violet plant response rating (field violet [1]; postemergence, 62 g ai/ha) | Plant response rating, Chamomile (chamomile; 31 g ai/ha) | Plant response rating, Field Violet (field violet [4]; 31 g ai/ha) | Plant response rating, Field Violet (field violet [4]; 62 g ai/ha)
15: Plant response rating (scale 0 to 100), Mustard, Wild (mustard, wild; [9]) | Plant response rating, Kochia (kochia [3]; Postemergence, 16 g ai/ha) | Plant response rating, Chickweed (chickweed; Postemergence, 16 g ai/ha) | Plant response rating, Radish, Wild (radish, wild; 31 g ai/ha) | Deadnettle plant response rating (deadnettle; Postemergence, 31 g ai/ha)
25: Plant response rating, Field Violet (field violet [1]; Postemergence, 16 g ai/ha) | Plant response rating, Mustard, Wild (mustard, wild; 31 g ai/ha) | Plant response rating, Mustard, Wild (mustard, wild; 62 g ai/ha) | Kochia plant response rating (kochia [3]; Postemergence, 31 g ai/ha) | Chickweed plant response rating (chickweed; postemergence, 62 g ai/ha) | Plant response rating (scale 0 to 100), Field Violet (field violet [4]; [9])
80: Plant response rating, Mustard, Wild (mustard, wild; 125 g ai/ha) | Plant response rating, Chamomile (chamomile; 62 g ai/ha)
5: Plant response rating, Foxtail, Green (foxtail, green; 31 g ai/ha) | Plant response rating, Bluegrass (bluegrass [5]; 125 g ai/ha) | Windgrass plant response rating (windgrass; Postemergence, 125 g ai/ha) | Plant response rating, Bromegrass, Downy (bromegrass, downy [7]; 62 g ai/ha) | Plant response rating, Bluegrass (bluegrass [8]; Postemergence, 16 g ai/ha) | Bluegrass plant response rating (bluegrass [8]; Postemergence, 31 g ai/ha) | Bluegrass plant response rating (bluegrass [8]; Postemergence, 125 g ai/ha) | Bluegrass plant response rating (bluegrass [8]; postemergence, 62 g ai/ha)
100: Plant response rating, Kochia (kochia [2]; 62 g ai/ha) | Plant response rating, Kochia (kochia [2]; 125 g ai/ha) | Plant response rating (scale 0 to 100), Speedwell (speedwell; [9]) | Plant response rating, Speedwell (speedwell; 31 g ai/ha) | Plant response rating, Speedwell (speedwell; 62 g ai/ha) | Plant response rating, Speedwell (speedwell; 125 g ai/ha) | Plant response rating, Radish, Wild (radish, wild; 125 g ai/ha)
85: Plant response rating, Kochia (kochia [2]; 31 g ai/ha)
90: Plant response rating, Chamomile (chamomile; 125 g ai/ha)
70: Galium plant response rating (galium; Postemergence, 125 g ai/ha)
